Test in all cases: growth of human tumour cells (NCI), 48 h
The test system of test [1] is 786-0.
Test [2] has as its system A549.
For test [3], the system named is BT-549.
For test [4], the system named is CAKI-1.
In test [5] the test system is EKVX.
For test [6], the system named is HL-60.
For test [7], the system named is HOP-62.
In test [8] the test system is KM12.
Test [9] concerns LOX IMVI.
For test [10], the system named is MCF7.
For test [11], the system named is MDA-N.
The test system of test [12] is NCI-H226.
For test [13], the system named is OVCAR-8.
The subject of test [14] is SF-295.
Test [15] deals with T47D.
In test [16] the test system is TK-10.
The test system of test [17] is UACC-257.
In test [18] the test system is UO-31.
Test [19] relates to NCI/ADR-RES.

Consider eleven compounds from ChEMBL document CHEMBL1201862, “PubChem BioAssay data set” (2004).

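Each compound was tested at five concentrations against cells in 96-well plates for 48 hours. The concentration for 50% growth inhibition is given as GI50.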 Activity calls are given as the source filed them. Cut-off read from the data, not from the text of the source: active = GI50 up to about 1.1 µM and inactive = higher.

In the case of `Cc1ccc(/C=C2\Cc3cccc(C)c3C2=O)c(C(=O)O)c1`, the GI50 was > 100 µM (inactive) in test [1]; 74.3 µM (inactive) in test [2]; 62.7 µM (inactive) in [3]; 19.9 µM (inactive) in [4]; > 100 µM (inactive) in [5]; 85.7 µM (inactive) in test [6]. Moreover, the GI50 in test [7] was > 100 µM (inactive); in test [8] it was 55.5 µM (inactive); in [9], 64.4 µM (inactive); in test [10] it was > 10 µM (inactive); in test [11], > 100 µM (inactive); in test [12], > 100 µM (inactive). Besides, the GI50 was 97.7 µM (inactive) in [13]; > 100 µM (inactive) in test [14]; 42.7 µM (inactive) in test [15]; > 100 µM (inactive) in test [16]; > 100 µM (inactive) in test [17]; 17.3 µM (inactive) in test [18].

For the compound `N#CSC#Cc1ccc(C#CSC#N)cc1`, the GI50 in [1] is 17.2 µM (inactive); in test [2], 17.8 µM (inactive); in [3] it was 17.9 µM (inactive); in test [4] it was 16.1 µM (inactive); in test [5] it was 18.5 µM (inactive); in [6] it was 54.8 µM (inactive). The GI50 is 23 µM (inactive) in test [7]; 19.4 µM (inactive) in test [8]; 16.3 µM (inactive) in test [9]; 19.9 µM (inactive) in test [10]; 17.8 µM (inactive) in test [11]; 21.6 µM (inactive) in [12]. Moreover, the GI50 was 19.2 µM (inactive) in test [19]; 19.6 µM (inactive) in test [13]; 20.9 µM (inactive) in [14]; 16.6 µM (inactive) in [16]; 17.3 µM (inactive) in test [17]; 17.2 µM (inactive) in test [18].

For `O=C(c1ccc(Cl)cc1Cl)N(C(=O)N1CCC(c2ccccc2)CC1)c1ccccc1`, the GI50 in [1] is > 100 µM (inactive); in [2] it was > 100 µM (inactive); in [3], > 100 µM (inactive); in test [4], > 100 µM (inactive); in [5], 86.9 µM (inactive); in test [7], > 100 µM (inactive). Further, the GI50 was > 100 µM (inactive) in test [8]; > 100 µM (inactive) in [9]; 72.4 µM (inactive) in test [10]; > 100 µM (inactive) in [12]; > 100 µM (inactive) in test [19]; > 100 µM (inactive) in test [13]. Further, the GI50 in test [14] is > 100 µM (inactive); in test [15] it was 53.7 µM (inactive); in [17] it was 63.8 µM (inactive); in test [18], > 100 µM (inactive).

On to `CC(C)(C)OC(=O)N1CCC23CCCC2C(=O)CC=C13` (stereo not drawn), for which the GI50 in test [1], in test [2], in test [3], in test [4], in [5] and in [6] was > 100 µM (inactive) each time. Besides, the GI50 in [7], in test [8], in test [9], in [10], in test [12] and in test [19] was > 100 µM (inactive) each time. Further, the GI50 in test [13] was > 100 µM (inactive); in [14], > 100 µM (inactive); in test [15] it was > 100 µM (inactive); in test [16] it was > 100 µM (inactive); in test [17] it was 11.8 µM (inactive); in [18] it was > 100 µM (inactive).

As for `CCCCOC(=O)C(=O)C(CC(C(=O)Cc1ccccc1)c1ccccc1)C(=O)C=C(C)C` (stereo not drawn), the GI50 in test [1] is > 100 µM (inactive); in test [2], > 100 µM (inactive); in test [3], > 100 µM (inactive); in [4], > 100 µM (inactive); in [5] it was > 100 µM (inactive); in [6] it was 50.1 µM (inactive). Moreover, the GI50 in test [7], in test [8], in test [9], in test [10], in test [11] and in [12] was > 100 µM (inactive) in each case. Further, the GI50 in [19], in test [13], in [14], in test [16], in [17] and in test [18] was > 100 µM (inactive) in each case.

`O=C1/C(=N/c2ccc(Nc3ccccc3)cc2)Oc2ccccc21`: the GI50 is 1.88 µM (inactive) in test [1]; 3.51 µM (inactive) in test [2]; 1.85 µM (inactive) in test [4]; 5.31 µM (inactive) in [5]; 1.99 µM (inactive) in test [6]; 5.57 µM (inactive) in [7]. Further, the GI50 was 2.14 µM (inactive) in test [8]; 2.34 µM (inactive) in [9]; 2.55 µM (inactive) in [10]; 2.74 µM (inactive) in test [11]; 3.31 µM (inactive) in test [12]; 1.9 µM (inactive) in [19]. Also, the GI50 in test [13] was 2.64 µM (inactive); in test [14], 3.35 µM (inactive); in [15], 3 µM (inactive); in test [16], 3.84 µM (inactive); in test [17], 2.42 µM (inactive); in [18], 2.35 µM (inactive).

With `CCCC[S+]([O-])CCC(N)C(=O)O` (stereo not drawn), the GI50 in test [1], in test [2], in test [3], in test [4], in test [5] and in [6] was > 100 µM (inactive) in each case. In addition, the GI50 in test [7], in test [8], in test [10], in test [11], in test [12] and in test [19] was > 100 µM (inactive) throughout. For the same compound, the GI50 in test [13], in [14], in [15], in test [16], in test [17] and in test [18] was > 100 µM (inactive) in each case.

Consider `O=C(CN(C(=O)OC12CC3CC(CC(C3)C1)C2)C(=O)OC12CC3CC(CC(C3)C1)C2)Oc1ccc([N+](=O)[O-])cc1`, for which the GI50 in [1], in test [2], in test [3], in test [4], in test [5] and in [7] was > 100 µM (inactive) throughout. Moreover, the GI50 is > 100 µM (inactive) in test [8]; > 100 µM (inactive) in [9]; > 100 µM (inactive) in [10]; > 100 µM (inactive) in [11]; > 100 µM (inactive) in test [12]; 85.3 µM (inactive) in test [19]. Moreover, the GI50 in test [13] was > 100 µM (inactive); in [14], > 100 µM (inactive); in test [16] it was 52.4 µM (inactive); in [17], > 100 µM (inactive); in test [18], > 100 µM (inactive).

On to `CC(=O)N1C=Cc2c(c(C)c3c([nH]c4ccccc43)c2C)C1`, for which the GI50 in test [1] was 2.41 µM (inactive); in test [2], 4.54 µM (inactive); in test [3], 3.33 µM (inactive); in [4], 10.1 µM (inactive); in test [5] it was 0.479 µM (active); in [6], 23.1 µM (inactive). In addition, the GI50 in [7] is 3.02 µM (inactive); in test [8], 2.9 µM (inactive); in test [9], 4.07 µM (inactive); in test [10], 2.72 µM (inactive); in [11] it was 8.75 µM (inactive); in test [12] it was 10.3 µM (inactive). The GI50 in test [19] is 2.5 µM (inactive); in test [13], 6.03 µM (inactive); in test [14], 8.22 µM (inactive); in [16], 10.8 µM (inactive); in [17], 15.1 µM (inactive).

Take `O=C1CSC(c2ccccc2O)N1c1ccc2c(c1)Oc1c(Cl)c3c(c(Cl)c1=N2)Oc1cc(N2C(=O)CSC2c2ccccc2O)ccc1N=3` (stereo not drawn): the GI50 is 40.1 µM (inactive) in [1]; > 100 µM (inactive) in [4]; > 100 µM (inactive) in [5]; 0.664 µM (active) in [6]; 28.6 µM (inactive) in test [7]; 34.3 µM (inactive) in [8]. Besides, the GI50 in [9] was 42.1 µM (inactive); in test [10] it was 34 µM (inactive); in [11] it was 38.4 µM (inactive); in test [12], 73.6 µM (inactive); in test [19], > 100 µM (inactive); in [13] it was 29.4 µM (inactive). For the same compound, the GI50 in [14] was 42 µM (inactive); in test [15], 37.4 µM (inactive); in test [16], 62.5 µM (inactive); in test [17], 81.1 µM (inactive); in [18] it was > 100 µM (inactive).

For `CCOP(=O)(OCC)C1(O)CC(n2cc(C)c(=O)[nH]c2=O)OC1CO` (stereo not drawn), the GI50 in test [1], in [2], in [4], in test [5], in test [6] and in test [7] was > 100 µM (inactive) each time. The GI50 in test [8], in test [9], in test [10], in [11], in test [12] and in test [19] was > 100 µM (inactive) each time. Further, the GI50 in [13], in test [14], in test [15], in test [16], in test [17] and in test [18] was > 100 µM (inactive) throughout.
